Source: ChEMBL document CHEMBL5131570, “Discovery of Potent Small-Molecule USP8 Inhibitors for the Treatment of Breast Cancer through Regulating ERα Expression” (J Med Chem, 2022)
Active and inactive are the calls of the source. No cut-off for these calls is given here.

What was measured:
[1] = molecular target: T1, Ubiquitin carboxyl-terminal hydrolase 8 (Homo sapiens, UniProt P40818); assay: Binding affinity to N-terminal His6-tagged USP8 catalytic domain (734 to 1110 residues) (unknown origin) expressed in Escherichia coli BL21 (DE3) cells by surface plasmon resonance method
T1 sequence (P40818 whole entry): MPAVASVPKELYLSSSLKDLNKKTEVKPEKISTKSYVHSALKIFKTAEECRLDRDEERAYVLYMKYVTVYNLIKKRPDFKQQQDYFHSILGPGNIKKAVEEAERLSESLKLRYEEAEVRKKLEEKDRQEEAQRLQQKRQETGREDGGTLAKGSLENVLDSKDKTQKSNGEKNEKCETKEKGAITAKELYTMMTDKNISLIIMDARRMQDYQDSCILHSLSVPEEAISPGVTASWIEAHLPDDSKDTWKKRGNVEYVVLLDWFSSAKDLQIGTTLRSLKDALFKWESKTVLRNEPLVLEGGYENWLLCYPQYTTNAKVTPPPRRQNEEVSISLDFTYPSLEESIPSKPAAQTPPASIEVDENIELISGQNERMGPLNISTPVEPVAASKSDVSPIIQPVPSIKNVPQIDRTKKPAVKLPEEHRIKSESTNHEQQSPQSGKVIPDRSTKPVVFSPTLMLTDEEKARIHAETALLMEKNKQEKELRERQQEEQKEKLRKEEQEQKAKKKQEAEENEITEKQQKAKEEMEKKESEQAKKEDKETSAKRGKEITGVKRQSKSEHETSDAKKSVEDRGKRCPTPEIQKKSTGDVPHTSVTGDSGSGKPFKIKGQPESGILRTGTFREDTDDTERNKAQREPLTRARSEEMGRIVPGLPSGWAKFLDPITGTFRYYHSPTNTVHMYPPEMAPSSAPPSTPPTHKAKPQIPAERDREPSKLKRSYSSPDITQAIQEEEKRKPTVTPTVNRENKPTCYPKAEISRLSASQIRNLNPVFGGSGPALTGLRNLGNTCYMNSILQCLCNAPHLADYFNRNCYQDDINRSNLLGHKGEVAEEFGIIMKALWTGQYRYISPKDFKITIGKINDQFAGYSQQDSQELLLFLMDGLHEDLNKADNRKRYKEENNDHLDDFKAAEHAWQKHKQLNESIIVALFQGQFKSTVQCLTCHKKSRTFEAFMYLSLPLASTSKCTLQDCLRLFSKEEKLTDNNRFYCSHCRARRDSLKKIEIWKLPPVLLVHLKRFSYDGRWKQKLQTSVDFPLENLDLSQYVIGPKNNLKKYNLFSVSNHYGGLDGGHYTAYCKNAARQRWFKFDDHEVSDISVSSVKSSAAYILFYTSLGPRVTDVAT

[2] = molecular target: T2, Ubiquitin carboxyl-terminal hydrolase 2 (Homo sapiens, UniProt O75604); assay: Inhibition of USP2 (267 to 599 residues) (unknown origin) catalytic domain expressed in Escherichia coli BL21 (DE3) cells using ubiquitin-rhodamine -110 as substrate incubated for 30 mins followed by substrate addition measured after 30 mins by ubiquitin-rhodamine-110 based fluorometric assay
T2 sequence (O75604 whole entry): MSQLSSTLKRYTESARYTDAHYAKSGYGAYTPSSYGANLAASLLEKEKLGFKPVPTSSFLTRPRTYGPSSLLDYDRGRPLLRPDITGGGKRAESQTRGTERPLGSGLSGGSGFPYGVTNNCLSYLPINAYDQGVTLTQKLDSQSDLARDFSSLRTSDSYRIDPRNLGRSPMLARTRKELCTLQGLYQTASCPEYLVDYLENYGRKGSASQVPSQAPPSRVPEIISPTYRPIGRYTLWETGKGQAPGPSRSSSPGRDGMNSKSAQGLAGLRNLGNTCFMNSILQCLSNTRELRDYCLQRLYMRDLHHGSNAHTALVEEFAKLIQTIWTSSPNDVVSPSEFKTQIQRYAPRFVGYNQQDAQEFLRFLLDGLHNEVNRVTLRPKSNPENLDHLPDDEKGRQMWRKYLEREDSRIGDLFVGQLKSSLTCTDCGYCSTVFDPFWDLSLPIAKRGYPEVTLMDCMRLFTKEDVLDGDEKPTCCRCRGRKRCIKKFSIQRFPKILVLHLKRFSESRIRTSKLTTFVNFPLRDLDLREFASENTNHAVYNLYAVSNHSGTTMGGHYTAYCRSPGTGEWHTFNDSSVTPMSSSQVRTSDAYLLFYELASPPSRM

[3] = Toxicity in BALB/c mouse xenografted with human MCF7 cells assessed as effect on heart at 5 to 20 mg/kg, […] every other day measured after 14 days by hematoxylin and eosin staining based analysis; format: organism-based; conditions: in vivo, 336 h, dose 5-20 mg/kg, time 14 day
MCF7 [4] = assay: Induction of apoptosis in human MCF7 cells assessed as reduction in ErbB2 expression level up to 5 uM incubated for 24 hrs by Western blotting analysis; format: functional, cell-based
MCF7 [5] = assay: Induction of apoptosis in human MCF7 cells assessed as increase in apoptotic cells at 0.5 uM incubated for 12 hrs by AnnexinV-FITC/propidium iodide staining based flow cytometry relative to control (reference value: 2.00 %); format: functional
[6] = Toxicity in BALB/c mouse xenografted with human MCF7 cells assessed as effect on kidney at 5 to 20 mg/kg, […] every other day measured after 14 days by hematoxylin and eosin staining based analysis; format: organism-based; conditions: in vivo, 336 h, dose 5-20 mg/kg, time 14 day
[7] = molecular target: T3, Ubiquitin carboxyl-terminal hydrolase 8 (Homo sapiens) (UniProt P40818); assay: Inhibition of N-terminal His6-tagged USP8 catalytic domain (734 to 1110 residues) in HEK293T intact cells up to 100 uM in presence of HA-Ub-VS probe by USP8 antibody based Western blotting assay; format: cell-based
T3 sequence (whole entry): T1 sequence (P40818 whole entry)

[8] = Toxicity in BALB/c mouse xenografted with human MCF7 cells assessed as effect on alanine aminotransferase level at 5 to 20 mg/kg, […] every other day measured after 14 days; format: organism-based; conditions: in vivo, 336 h, dose 5-20 mg/kg, time 14 day
[9] = Toxicity in BALB/c mouse xenografted with human MCF7 cells assessed as effect on aspartate aminotransferase level at 5 to 20 mg/kg, […] every other day measured after 14 days; format: organism-based; conditions: in vivo, 336 h, dose 5-20 mg/kg, time 14 day
[10] = molecular target: T3, Ubiquitin carboxyl-terminal hydrolase 8 (Homo sapiens); assay: Inhibition of N-terminal His6-tagged USP8 catalytic domain (734 to 1110 residues) in HEK293T cell lysates up to 100 uM in presence of HA-Ub-VS probe by USP8 antibody based Western blotting assay; format: subcellular
MCF7 [11] = assay: Induction of apoptosis in human MCF7 cells assessed as increase in apoptotic cells at 0.2 uM incubated for 12 hrs by AnnexinV-FITC/propidium iodide staining based flow cytometry relative to control (reference value: 2.00 %); format: functional
MCF7 [12] = assay: Induction of apoptosis in human MCF7 cells assessed as increase in apoptotic cells at 2 uM incubated for 12 hrs by AnnexinV-FITC/propidium iodide staining based flow cytometry relative to control (reference value: 2.00 %); format: functional
[13] = Toxicity in BALB/c mouse xenografted with human MCF7 cells assessed as effect on liver at 5 to 20 mg/kg, […] every other day measured after 14 days by hematoxylin and eosin staining based analysis; format: organism-based; conditions: in vivo, 336 h, dose 5-20 mg/kg, time 14 day

For `Cc1n[nH]c(C)c1Oc1c(O)cc(O)c2c(=O)cc(-c3ccc(N4CCN(c5ccccn5)CC4)cc3)oc12`, the Kd [1] was 4.7 µM, the IC50 [2] was 50 µM and the Activity [3] was “Non-Toxic”. For the same molecule, the Activity (MCF7 [4]) was “Active”, the Activity (MCF7 [5]) was 2.5% and the Activity [6] was “Non-Toxic”. The inhibition [7] was “Active”, the Activity [8] was “Non-Toxic” and the Activity [9] was “Non-Toxic”. For the same molecule, the inhibition [10] was “Active”, the Activity (MCF7 [11]) was 1.9% and the Activity (MCF7 [12]) was 12.57%. The Activity [13] was “Non-Toxic”.
